What was measured:
[1] = Micelle size by dynamic light scattering (DLS); type: physicochemical; settings: micelles at 1.0% by weight
Protocol: A method of measuring the radius of the micelles is not particularly limited, but methods widely known in the related art may be used. For example, the radius of the micelles may be measured using a dynamic light scattering (DLS) experiment.
(§1) To check the characteristics of ACAs synthesized according to the synthesis methods of Examples 1 to 4, critical micelle concentrations (CMCs) of the ACAs and hydrodynamic diameters (DO of the formed micelles were measured.
(§2) Specifically, the critical micelle concentration (CMC) was measured by fluorescence staining using diphenylhexatriene (DPH), and the hydrodynamic diameters (Dh) of the micelles formed by each of the preparations (1.0% by weight) were measured by means of a dynamic light scattering (DLS) experiment. The measured results are shown in Table 1 in comparison to DDM and octyl glucoside neopentyl glycol (OGNG), two existing amphipathic molecule (detergent).
In addition, the size distribution of the micelles formed by ACAs was examined by DLS. As a result, it was confirmed that the size of the micelles increased with an increasing length of the alkyl chain. This is because a compound having a cylindrical structure easy for self-assemblage is formed as more carbon is added to the hydrophobic end (FIG. 3).

[2] = Water solubility of the detergents; type: physicochemical
[3] = Critical micelle concentration by fluorescence staining using diphenylhexatriene (DPH); type: physicochemical; settings: aqueous solution
Protocol: A method of measuring the CMC is not particularly limited, but a method widely known in the art may be used, and for example, the CMC may be measured by a fluorescent staining method using diphenylhexatriene (DPH).
as §1, §2

[4] = target: T1, mouse u-opioid receptor (MOR) (Mus musculus, UniProt P42866); experiment: MOR long-term stability, [3H]-diprenorphine ligand binding; type: biochemical; settings: 0.1 wt % detergent, 4° C., after 8 hours of incubation
T1 construct: made in house
T1 sequence (P42866 whole entry): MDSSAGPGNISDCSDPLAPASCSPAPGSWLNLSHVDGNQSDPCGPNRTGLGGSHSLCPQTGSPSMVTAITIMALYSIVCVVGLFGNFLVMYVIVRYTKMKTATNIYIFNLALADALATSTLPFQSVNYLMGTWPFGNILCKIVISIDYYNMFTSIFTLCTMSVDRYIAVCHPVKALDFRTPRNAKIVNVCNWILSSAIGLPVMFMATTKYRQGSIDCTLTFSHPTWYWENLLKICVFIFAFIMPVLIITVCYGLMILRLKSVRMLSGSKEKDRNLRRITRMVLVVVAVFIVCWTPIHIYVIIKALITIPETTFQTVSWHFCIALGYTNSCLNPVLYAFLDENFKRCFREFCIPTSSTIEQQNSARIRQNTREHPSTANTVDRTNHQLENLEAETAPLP
Protocol: To perform a long-term stability analysis, MOR in 0.1% LMNG was purified. […] MOR in each detergent was incubated for five days at 4° C. and its ligand binding capacity was measured at regular intervals during the incubation. The ligand binding ability of the receptor was measured by adding ˜1 nM of radioactive [^3H]-diprenorphine (DPN). The [^3H]-DPN-containing mixture was immobilized to an anti-flag resin and the resin was collected using GF/B filter paper and scintillation fluid was added into the filter paper. Receptor-bound […] was measured with a scintillation counter (Beckman).

[5] = target: T2, melibiose permease of Salmonella typhimurium (MelBSt) (Salmonella typhimurium, UniProt P30878); experiment: MelBSt extraction and thermal solubilization, SDS-PAGE and immunoblotting; type: biochemical; settings: 1.5% (w/v) detergent, 90 min incubation at 55° C.
T2 construct: made in house; host or cells: E. coli DW2 (ΔmelB, ΔlacZY), plasmid pK95ΔΔHB/WT MelBSt/CH10
T2 sequence (P30878 whole entry): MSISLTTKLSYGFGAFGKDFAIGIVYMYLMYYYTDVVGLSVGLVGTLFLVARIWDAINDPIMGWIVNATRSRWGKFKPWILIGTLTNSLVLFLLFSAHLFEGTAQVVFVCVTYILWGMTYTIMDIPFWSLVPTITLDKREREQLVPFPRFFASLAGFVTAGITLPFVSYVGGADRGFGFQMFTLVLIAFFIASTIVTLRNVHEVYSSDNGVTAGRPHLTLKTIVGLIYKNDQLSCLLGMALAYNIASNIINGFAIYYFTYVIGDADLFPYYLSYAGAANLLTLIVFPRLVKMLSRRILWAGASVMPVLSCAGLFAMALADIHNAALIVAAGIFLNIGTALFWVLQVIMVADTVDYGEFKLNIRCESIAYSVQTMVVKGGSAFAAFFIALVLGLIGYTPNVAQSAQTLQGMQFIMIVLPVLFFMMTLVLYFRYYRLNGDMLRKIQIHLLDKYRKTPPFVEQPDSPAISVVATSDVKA
Protocol: Melibiose and other galactoside transporter MelB was produced by E. coli DW2 strain (ΔmelB and ΔlacZY) harboring pK95ΔΔHB/WT MelBSt/CH10 plasmid. The plasmid contains the gene encoding the wild-type melibiose permease of Salmonella typhimurium (MelBSt) with a 10-His tag at the C-terminus. Cell growth and membrane preparation were carried out as described in A. S. Ethayathulla, et al., Nat. Commun. 2014, 5, 3009. Protein assay was carried out with a Micro BCA kit (Thermo Scientific). The membrane samples containing MelBSt (10 mg/mL) in a solubilization buffer (20 mM sodium phosphate, pH 7.5, 200 mM NaCl, 10% glycerol and 20 mM melibiose) were mixed with each individual detergent (ACA-SCs, ACA-ACs and DDM) at 1.5% (w/v). Protein extractions were carried out at 0° C. for 90 min. The protein samples were further incubated at three different temperatures (45, 55, and 65° C.) for 90 min. After extraction and incubation, insoluble fractions were removed by ultracentrifugation at 355,590 g in a Beckman Optima™ MAX Ultracentrifuge using a TLA-100 rotor for 45 min at 4° C. […] membrane proteins without ultracentrifugation and detergent extracts after the ultracentrifugation with the same volume were loaded for analysis by SDS-15% PAGE, and immunoblotting with a HisProbe-HRP antibody (Thermo Scientific) was conducted for visualizing the MelBSt.

Rh (nm) [1] [nm] | Solubility (% by weight) [2] [% by weight] | CMC [3] [mM] | CMC (% by weight) [3] [% by weight] | Compound | residual activity of MOR [4] [%] | MelBSt solubilization ability [5]
4.4 ± 0.3 | >10 | ~1.0 | ~0.058 | CCCCCCC(CCCCCC)(CO[C@@H]1O[C@H](CO)[C@@H](O)[C@H](O)[C@H]1O)CO[C@@H]1O[C@H](CO)[C@@H](O)[C@H](O)[C@H]1O [OGNG, octyl glucoside neopentyl glycol, reference compound] |  | 
13.9 ± 1.1 | ~5 | ~0.005 | ~0.0005 | CCCCCCCCCCCCCC(COC1OC(CO)C(O)C(O)C1O)C(OC1OC(CO)C(O)C(O)C1O)C(CCCCCCCCCCCCC)COC1OC(CO)C(O)C(O)C1O (mixture of isomers) [ACA-SC13] |  | 
8.9 ± 0.7 | ~9 | ~0.012 | ~0.0011 | CCCCCCCCCCCCC(CCCCCCCCCCCC)(COC1OC(CO)C(O)C(O)C1O)C(CCOC1OC(CO)C(O)C(O)C1O)OC1OC(CO)C(O)C(O)C1O (mixture of isomers) [ACA-AC12] |  | 
8.3 ± 0.1 | ~10 | ~0.007 | ~0.0007 | CCCCCCCCCCCCC(COC1OC(CO)C(O)C(O)C1O)C(OC1OC(CO)C(O)C(O)C1O)C(CCCCCCCCCCCC)COC1OC(CO)C(O)C(O)C1O (mixture of isomers) [ACA-SC12] |  | 
2.7 ± 0.2 | >10 | ~0.019 | ~0.0017 | CCCCCCCCCCC(CCCCCCCCCC)(COC1OC(CO)C(O)C(O)C1O)C(CCOC1OC(CO)C(O)C(O)C1O)OC1OC(CO)C(O)C(O)C1O (mixture of isomers) [ACA-AC10] |  | 

Compound | Rh (nm) [1] [nm] | Solubility (% by weight) [2] [% by weight] | CMC [3] [mM] | CMC (% by weight) [3] [% by weight] | residual activity of MOR [4] [%] | MelBSt solubilization ability [5]
CCCCCCCCCCCCO[C@@H]1O[C@H](CO)[C@@H](O[C@H]2O[C@H](CO)[C@@H](O)[C@H](O)[C@H]2O)[C@H](O)[C@H]1O [DDM, n-dodecyl-β-D-maltopyranoside, reference compound] | 3.4 ± 0.3 | >10 | 0.17 | 0.0087 | 10 | 
CCCCCCCCCCCC(COC1OC(CO)C(O)C(O)C1O)C(OC1OC(CO)C(O)C(O)C1O)C(CCCCCCCCCCC)COC1OC(CO)C(O)C(O)C1O (mixture of isomers) [ACA-SC11] | 2.9 ± 0.3 | ~10 | ~0.010 | ~0.0009 |  | approximately 60%
CCCCCCCCCCCC(CCCCCCCCCCC)(COC1OC(CO)C(O)C(O)C1O)C(CCOC1OC(CO)C(O)C(O)C1O)OC1OC(CO)C(O)C(O)C1O (mixture of isomers) [ACA-AC11] | 3.3 ± 0.2 | ~10 | ~0.014 | ~0.0013 |  | approximately 70%

From patent publication US11884693B2, “1,3-acetonedicarboxylate-derived amphipathic compounds and uses thereof” (INDUSTRY-UNIVERSITY COOPERATION FOUNDATION HANYANG …, priority 2022, dated 2024)
